Legend:
[1] = Test of in vivo distribution of F-18-labeled compounds (concentration in brain, passage through blood-brain barrier); parameters: Concentration in brain of rats, At 2 minutes ([2 min]) / Concentration in brain of rats, At 30 minutes ([30 min]): unit not given here; details: SD rats; for Initial brain inflow: at 2 minutes; for [2 min]/[30 min] / [peak]/[30 min]: ratio of brain concentrations; for [2 min]/[30 min]: value smaller than 1 = cannot pass the blood-brain barrier well; for Concentration in brain of rats, Highest ([peak]) / Time of highest concentration in brain (in parentheses): F-18-labeled compound
Protocol: In order to test the passing of the aryl derivative with the (3-fluoro-2-hydroxy)propyl group according to the present disclosure through the blood-brain barrier, the following experiment was carried out.
After administering the F-18-labeled aryl derivatives prepared in Examples 10 to 13 or 2-(4-(N-monomethyl)aminophenyl)-6-(3-[^18F]fluoropropoxy)benzothiophene with no hydroxyl group, as control, to SD rats, peak concentration in the brain and concentrations at 2 minutes ([2 min]) and 30 minutes ([30 min]) were measured and pharmacokinetic properties were quantitatively compared.
A larger value indicates easier passage through the blood-brain barrier.

[2] = molecular target: T1, β-Amyloid (Aβ1-42) fibrils (Homo sapiens, UniProt P05067); test: Test of inhibitory binding ability against [125I]TZDM on β-amyloid fibrils; details: Aβ1-42 fibrils 10 nM, [125I]TZDM 0.05 nM, room temperature 3 hours; read-out: Ki, binding affinity (Ki) for [125I]TZDM (48)
T1 construct: β-Amyloid peptide (Aβ1-42, Bachem, 1 mg); purchased Bachem
Protocol: β-Amyloid peptide (Aβ1-42, Bachem, 1 mg) was completely dissolved in DMSO (1 mL) and then mixed well after adding phosphate buffer (pH 7.4, 9 mL). β-Amyloid fibrils produced by incubating at 37° C. for 60 minutes were distributed into e-tubes, 0.5 mL each, and stored in a refrigerator at −80° C.
10% ethanol (0.850 mL) was placed in a 12 mm×75 mm borosilicate test tube. […] Then, after adding [^125I]TZDM (48) (50 μL, final reaction concentration=0.05 nM), the resulting mixture was subjected to incubation at room temperature for 3 hours. 3 Hours later, after separating [^125I]TZDM (48) bound to the β-amyloid (Aβ1-42) fibrils from unbound [^125I]TZDM (48) using a cell harvester, gamma radiation was measured using a gamma counter. 2 μM ThT was used for testing of non-specific binding.

T1 sequence (P05067 672-713 limits assumed): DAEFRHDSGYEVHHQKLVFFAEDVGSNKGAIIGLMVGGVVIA

SMILES	Concentration in brain of rats, At 2 minutes ([2 min]) [1]	Concentration in brain of rats, At 30 minutes ([30 min]) [1]	Concentration in brain of rats, Highest ([peak]) [1]	Time of highest concentration in brain (in parentheses) [1]	[peak]/[30 min] [1]	Ki [2]	further results
CNc1ccc(-c2cc3ccc(OCCC[18F])cc3s2)cc1 [Control, 2-(4-(N-monomethyl)aminophenyl)-6-(3-[^18F]fluoropropoxy)benzothiophene, reference compound]	2.02	2.18	–	–	–	–	Initial brain inflow [1]: very low; [2 min]/[30 min] [1]: 0.93; [2 min]/[30 min] ([1]; listed as 2-[4-(N-monomethyl)aminophenyl]-6-β-[^18F]fluoropropoxy)benzothiophene): less than or equal to 1
CNc1cccc(-c2nc3ccc(OCC(O)C[18F])cc3s2)c1 (racemic) [Example 12, 2-[3-(N-monomethyl)aminophenyl]-6-[(R/S)-3-[^18F]fluoro-2-hydroxypropoxy]benzothiazole]	15.7	2.9	22.6	25 s	7.7	–	–
CNc1ccc(-c2nc3ccc(OCC(O)CF)cc3s2)cc1 (racemic) [Example 6, 2-[4-(N-monomethyl)aminophenyl]-6-[(R/S)-3-fluoro-2-hydroxypropoxy]benzothiazole]	–	–	–	–	–	1.06 nM	–
CNc1ccc(-c2cc3ccc(OCC(O)CF)cc3s2)cc1 (racemic) [Example 1, 2-[4-(N-monomethyl)aminophenyl]-6-[(R/S)-3-fluoro-2-hydroxypropoxy]benzothiophene]	–	–	–	–	–	1.2 nM	–
CNc1ccc(-c2cc3ccc(OCC(O)C[18F])cc3s2)cn1 (racemic) [Example 10, 2-[2-(N-monomethyl)aminopyridin-5-yl]-6-[(R/S)-3-[^18F]fluoro-2-hydroxypropoxy]benzothiophene]	16.5	2.2	22.4	30 s	10.3	–	[2 min]/[30 min] value relative to that of the compound with no hydroxyl group at the propyl residue [1]: 8.1 times; Initial brain inflow [1]: very rapid; [2 min]/[30 min] [1]: 7.5
CNc1ccc(-c2nc3ccc(OCC(O)C[18F])cc3s2)cn1 (racemic) [Example 13, 2-[2-(N-monomethyl)aminopyridin-5-yl]-6-[(R/S)-3-[^18F]fluoro-2-hydroxypropoxy]benzothiazole]	6.5	1.0	11.1	45 s	10.8	–	–
CNc1ccc(-c2nc3ccc(OC[C@H](O)CF)cc3s2)cn1 [Example 8, 2-[2-(N-monomethyl)aminopyridin-5-yl]-6-[(S)-3-fluoro-2-hydroxypropoxy]benzothiazole]	–	–	–	–	–	0.16 nM	–
CNc1ccc(-c2cc3ccc(OCC(O)CF)cc3s2)cn1 (racemic) [Example 2, 2-[2-(N-monomethyl)aminopyridin-5-yl]-6-[(R/S)-3-fluoro-2-hydroxypropoxy]benzothiophene]	–	–	–	–	–	0.49 nM	–
CNc1ccc(-c2cc3ccc(OCC(O)CF)cc3s2)nn1 (racemic) [Example 5, 2-[3-(N-monomethyl)aminopyridazin-6-yl]-6-[(R/S)-3-fluoro-2-hydroxypropoxy]benzothiophene]	–	–	–	–	–	0.42 nM	–
